Data as given in patent US10603322B2, “Therapeutic targeting of casein kinase 1δ in breast cancer” (The Scripps Research Institute, priority 2015, dated 2020).

Legend:
MDA-MB-231 TNBC cells = assay: Cell proliferation / growth assay; type: cell-based, human
cancer cells = conditions: cited from earlier work
BCM-4013 PDX tumors = conditions: mouse, in vivo; cited from earlier work

CC(C)(C)c1cc(NC(=O)Nc2ccc(-c3cn4c(n3)sc3cc(OCCN5CCOCC5)ccc34)cc2)no1 [AC220, reference compound]
anti-proliferative activity (MDA-MB-231 TNBC cells): insensitive

COc1cc(OC)c(C=C2C(O)=Nc3ccccc32)c(OC)c1 [IC261]
mode of action (cancer cells; not by inhibition of CK1δ/CK1ε): blocking tubulin function

Nc1nccc(-c2c(-c3ccc(F)cc3)ncn2C2CCCCC2)n1 [PF670462]
anti-cancer activity (cancer cells): lacks anti-cancer activity

CC(=O)O[C@@]12CO[C@@H]1C[C@H](O)[C@@]1(C)C(=O)[C@H](O)C3=C(C)[C@@H](OC(=O)[C@H](O)[C@@H](NC(=O)OC(C)(C)C)c4ccccc4)C[C@@](O)([C@@H](OC(=O)c4ccccc4)[C@H]21)C3(C)C [docetaxel]
response of the BCM-4013 model to treatment (BCM-4013 PDX tumors): limited response
